According to ChEMBL document CHEMBL1153825, “From a natural product lead to the identification of potent and selective benzofuran-3-yl-(indol-3-yl)maleimides as glycogen synthase kinase 3beta inhibitors that suppress proliferation and survival of pancreatic cancer cells” (J Med Chem, 2009):

Legend:
[1] = target: RAF proto-oncogene serine/threonine-protein kinase (Homo sapiens, UniProt P04049); assay: Inhibition of cRAF up to 50 uM
[2] = target: Mitogen-activated protein kinase 3 (Homo sapiens, UniProt P27361); assay: Inhibition of ERK1 up to 50 uM
[3] = target: T1, Inhibitor of nuclear factor kappa-B kinase subunit alpha (Homo sapiens, UniProt O15111)
T1 sequence (O15111 whole entry): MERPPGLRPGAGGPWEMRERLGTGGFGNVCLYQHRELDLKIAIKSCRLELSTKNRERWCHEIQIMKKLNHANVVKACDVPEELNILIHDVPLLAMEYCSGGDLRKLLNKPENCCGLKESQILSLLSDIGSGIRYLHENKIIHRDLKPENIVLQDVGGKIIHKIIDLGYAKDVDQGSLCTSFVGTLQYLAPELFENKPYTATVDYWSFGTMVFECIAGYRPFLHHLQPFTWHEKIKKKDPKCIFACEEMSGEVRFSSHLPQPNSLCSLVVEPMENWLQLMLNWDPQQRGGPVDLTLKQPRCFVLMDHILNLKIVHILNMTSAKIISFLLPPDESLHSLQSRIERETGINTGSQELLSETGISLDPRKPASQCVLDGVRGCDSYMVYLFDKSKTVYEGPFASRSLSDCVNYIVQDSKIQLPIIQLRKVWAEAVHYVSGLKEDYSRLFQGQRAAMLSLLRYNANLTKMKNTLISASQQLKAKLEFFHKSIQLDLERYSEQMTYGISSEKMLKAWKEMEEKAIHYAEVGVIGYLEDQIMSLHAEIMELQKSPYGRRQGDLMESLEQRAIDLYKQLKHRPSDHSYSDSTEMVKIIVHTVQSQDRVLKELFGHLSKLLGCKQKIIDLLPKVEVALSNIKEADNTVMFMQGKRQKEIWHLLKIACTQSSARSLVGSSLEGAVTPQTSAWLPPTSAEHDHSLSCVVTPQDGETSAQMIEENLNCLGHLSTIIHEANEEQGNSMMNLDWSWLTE

[4] = target: T2, Cyclin-dependent kinase 2 (Homo sapiens, UniProt P24941)
[5] = target: Cyclin-dependent kinase 1/cyclin B1 (Homo sapiens, UniProt P06493); assay: Inhibition of CDK1/Cyclin B; type: protein-complex assay
[6] = target: RAC-gamma serine/threonine-protein kinase (Homo sapiens, UniProt Q9Y243); assay: Inhibition of AKT3 up to 50 uM
[7] = target: T3, Serine/threonine-protein kinase Chk1 (Homo sapiens, UniProt O14757); assay: Inhibition of CHK1
T3 sequence (O14757 whole entry): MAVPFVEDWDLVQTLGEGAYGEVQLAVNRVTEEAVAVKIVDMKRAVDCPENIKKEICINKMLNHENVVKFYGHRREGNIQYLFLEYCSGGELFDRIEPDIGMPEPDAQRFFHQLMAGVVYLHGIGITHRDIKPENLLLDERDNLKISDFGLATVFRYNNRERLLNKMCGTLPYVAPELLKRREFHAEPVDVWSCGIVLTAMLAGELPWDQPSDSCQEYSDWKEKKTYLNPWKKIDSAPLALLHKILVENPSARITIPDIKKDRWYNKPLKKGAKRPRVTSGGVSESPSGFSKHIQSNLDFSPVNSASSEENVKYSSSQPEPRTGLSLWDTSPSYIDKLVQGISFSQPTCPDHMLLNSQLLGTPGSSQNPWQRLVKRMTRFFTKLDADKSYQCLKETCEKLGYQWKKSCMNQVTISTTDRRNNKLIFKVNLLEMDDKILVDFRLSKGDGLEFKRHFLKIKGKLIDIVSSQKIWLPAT

[8] = target: T2, Cyclin-dependent kinase 2; remark: listed apart in the source
[9] = target: T4, Inhibitor of nuclear factor kappa-B kinase subunit beta (Homo sapiens, UniProt O14920); assay: Inhibition of IKK-beta up to 50 uM
T4 sequence (O14920 whole entry): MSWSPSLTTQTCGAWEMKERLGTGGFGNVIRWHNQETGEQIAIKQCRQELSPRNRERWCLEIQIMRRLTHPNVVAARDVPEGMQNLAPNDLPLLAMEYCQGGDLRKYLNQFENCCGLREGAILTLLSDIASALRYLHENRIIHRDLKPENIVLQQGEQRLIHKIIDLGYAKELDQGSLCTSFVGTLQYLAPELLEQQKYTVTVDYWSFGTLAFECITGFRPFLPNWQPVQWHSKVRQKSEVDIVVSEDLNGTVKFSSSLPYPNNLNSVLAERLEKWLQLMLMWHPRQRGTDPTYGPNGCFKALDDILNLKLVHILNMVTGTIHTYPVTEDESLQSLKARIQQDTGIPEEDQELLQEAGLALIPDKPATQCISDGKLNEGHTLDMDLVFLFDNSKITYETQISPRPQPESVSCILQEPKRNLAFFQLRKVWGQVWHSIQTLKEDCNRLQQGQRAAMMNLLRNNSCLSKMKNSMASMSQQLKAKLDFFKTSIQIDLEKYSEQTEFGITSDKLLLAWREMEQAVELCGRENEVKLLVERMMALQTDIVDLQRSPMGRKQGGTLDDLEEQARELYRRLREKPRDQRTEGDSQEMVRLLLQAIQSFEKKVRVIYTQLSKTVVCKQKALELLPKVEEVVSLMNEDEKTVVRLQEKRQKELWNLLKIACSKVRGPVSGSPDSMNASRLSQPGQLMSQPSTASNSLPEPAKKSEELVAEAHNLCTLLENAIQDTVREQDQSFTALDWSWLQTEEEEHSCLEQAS

[10] = target: Glycogen synthase kinase-3 beta (Homo sapiens, UniProt P49841); assay: Inhibition of human GSK3-beta by scintillation counting
[11] = test system: MIA PaCa-2; assay: Growth inhibition of human MIAPaCa2 cells after 72 hrs by MTS assay; type: functional, cell-based; details: MIA PaCa-2, 72 h
[12] = test system: BXPC-3; assay: Growth inhibition of human BxPC3 cells after 72 hrs by MTS assay; type: functional, cell-based; details: BXPC-3, 72 h
[13] = test system: HuP-T3; assay: Growth inhibition of human HUPT3 cells after 72 hrs by MTS assay; type: functional, cell-based; details: HuP-T3, 72 h

Sequence of Glycogen synthase kinase-3 beta (P49841 whole entry): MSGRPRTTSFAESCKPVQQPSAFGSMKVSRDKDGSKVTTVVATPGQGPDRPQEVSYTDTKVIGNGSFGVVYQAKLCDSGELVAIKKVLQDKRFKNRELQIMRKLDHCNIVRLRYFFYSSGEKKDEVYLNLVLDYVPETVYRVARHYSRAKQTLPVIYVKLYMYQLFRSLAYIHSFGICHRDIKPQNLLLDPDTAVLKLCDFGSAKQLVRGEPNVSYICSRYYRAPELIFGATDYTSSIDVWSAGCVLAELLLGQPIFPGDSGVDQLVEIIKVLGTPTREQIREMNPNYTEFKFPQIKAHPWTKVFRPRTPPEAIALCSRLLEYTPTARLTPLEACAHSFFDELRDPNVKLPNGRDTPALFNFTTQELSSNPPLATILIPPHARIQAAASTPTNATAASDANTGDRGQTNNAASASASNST
Sequence of RAF proto-oncogene serine/threonine-protein kinase (P04049 whole entry): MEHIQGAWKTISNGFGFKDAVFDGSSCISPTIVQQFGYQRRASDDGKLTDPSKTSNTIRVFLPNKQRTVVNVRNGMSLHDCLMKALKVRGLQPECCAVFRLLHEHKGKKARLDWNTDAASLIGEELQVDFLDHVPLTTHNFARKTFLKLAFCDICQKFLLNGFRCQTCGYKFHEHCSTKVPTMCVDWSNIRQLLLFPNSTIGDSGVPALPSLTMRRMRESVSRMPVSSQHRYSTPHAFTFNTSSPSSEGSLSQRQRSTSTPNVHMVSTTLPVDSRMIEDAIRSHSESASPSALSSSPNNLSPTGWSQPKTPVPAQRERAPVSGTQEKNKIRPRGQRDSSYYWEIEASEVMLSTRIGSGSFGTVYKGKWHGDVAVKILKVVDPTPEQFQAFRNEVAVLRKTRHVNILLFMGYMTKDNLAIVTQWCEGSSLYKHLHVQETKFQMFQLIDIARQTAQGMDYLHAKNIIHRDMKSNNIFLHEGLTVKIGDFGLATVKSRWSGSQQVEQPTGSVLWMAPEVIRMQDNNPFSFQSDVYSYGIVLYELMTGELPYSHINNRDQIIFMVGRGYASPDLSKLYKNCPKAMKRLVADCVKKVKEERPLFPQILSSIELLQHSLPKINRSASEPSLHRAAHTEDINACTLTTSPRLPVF
Sequence of Cyclin-dependent kinase 1/cyclin B1 (P06493 whole entry): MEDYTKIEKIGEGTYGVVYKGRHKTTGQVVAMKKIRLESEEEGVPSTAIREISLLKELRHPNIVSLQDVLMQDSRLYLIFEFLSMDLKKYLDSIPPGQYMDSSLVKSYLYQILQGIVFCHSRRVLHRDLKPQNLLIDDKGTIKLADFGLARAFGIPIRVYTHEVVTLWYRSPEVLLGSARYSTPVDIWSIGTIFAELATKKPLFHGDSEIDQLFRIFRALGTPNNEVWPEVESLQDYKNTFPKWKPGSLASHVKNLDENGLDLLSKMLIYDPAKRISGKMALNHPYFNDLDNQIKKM
Sequence of Cyclin-dependent kinase 1/cyclin B1 (P14635 whole entry, further chain): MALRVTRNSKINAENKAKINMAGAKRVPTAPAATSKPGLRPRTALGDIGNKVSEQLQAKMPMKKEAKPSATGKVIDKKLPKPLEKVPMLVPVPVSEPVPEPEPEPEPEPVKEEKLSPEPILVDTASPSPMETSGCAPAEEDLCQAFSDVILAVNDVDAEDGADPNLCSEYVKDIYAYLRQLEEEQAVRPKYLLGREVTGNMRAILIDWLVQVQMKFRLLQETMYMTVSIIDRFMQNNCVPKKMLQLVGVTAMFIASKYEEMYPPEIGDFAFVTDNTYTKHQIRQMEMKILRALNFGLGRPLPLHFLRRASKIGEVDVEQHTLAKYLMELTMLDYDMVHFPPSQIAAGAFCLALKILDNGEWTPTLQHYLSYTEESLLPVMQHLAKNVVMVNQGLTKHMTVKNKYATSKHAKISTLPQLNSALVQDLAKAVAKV
Sequence of RAC-gamma serine/threonine-protein kinase (Q9Y243 whole entry): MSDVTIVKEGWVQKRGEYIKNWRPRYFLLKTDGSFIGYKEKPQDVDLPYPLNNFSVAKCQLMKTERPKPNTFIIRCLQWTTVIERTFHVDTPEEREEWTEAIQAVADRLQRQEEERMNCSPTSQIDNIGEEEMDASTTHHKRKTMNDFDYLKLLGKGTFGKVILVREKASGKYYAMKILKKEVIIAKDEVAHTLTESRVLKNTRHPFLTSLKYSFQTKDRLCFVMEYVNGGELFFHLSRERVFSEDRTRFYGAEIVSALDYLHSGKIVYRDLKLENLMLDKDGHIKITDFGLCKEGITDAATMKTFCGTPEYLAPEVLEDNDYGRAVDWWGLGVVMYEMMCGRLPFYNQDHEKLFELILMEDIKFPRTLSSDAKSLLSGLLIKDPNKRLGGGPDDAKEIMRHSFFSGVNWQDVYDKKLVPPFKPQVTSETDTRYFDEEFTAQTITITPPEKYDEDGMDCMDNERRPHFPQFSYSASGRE
Sequence of Mitogen-activated protein kinase 3 (P27361 whole entry): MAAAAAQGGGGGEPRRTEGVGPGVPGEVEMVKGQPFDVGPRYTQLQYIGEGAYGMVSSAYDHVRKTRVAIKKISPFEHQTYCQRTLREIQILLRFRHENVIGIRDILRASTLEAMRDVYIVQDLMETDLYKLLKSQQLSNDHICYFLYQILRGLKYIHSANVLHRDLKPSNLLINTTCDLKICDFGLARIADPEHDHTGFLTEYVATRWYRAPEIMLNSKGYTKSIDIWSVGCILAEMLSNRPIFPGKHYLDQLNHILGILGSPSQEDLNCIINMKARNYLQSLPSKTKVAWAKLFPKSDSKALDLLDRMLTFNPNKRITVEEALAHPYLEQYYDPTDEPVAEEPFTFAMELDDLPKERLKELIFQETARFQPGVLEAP

Row | Structure (SMILES) | IC50 [10] | IC50 [11] | IC50 [12] | IC50 [13] | further results
1 | COc1cccc2c(C3=C(c4cn(C)c5cc(I)c(F)cc45)C(=O)NC3=O)coc12 | – | – | – | – | IC50 [1]: Not Active; IC50 [2]: Not Active; IC50 [3]: > 50 µM; IC50 [4]: > 50 µM; IC50 [5]: > 50 µM; IC50 [6]: Not Active; IC50 [7]: > 50 µM; IC50 [8]: > 50 µM; IC50 [9]: Not Active
2 | Cn1cc(C2=C(c3coc4cc(CO)ccc34)C(=O)NC2=O)c2cc(Br)ccc21 | 0.00051 µM | – | – | – | –
3 | Cn1cc(C2=C(c3ccc(Cl)cc3Cl)C(=O)NC2=O)c2ccccc21 [SB-216763] | – | 25 µM | – | – | –
4 | Cn1cc(C2=C(c3coc4ccc(F)cc34)C(=O)NC2=O)c2cc(Cl)ccc21 | 0.042 µM | – | – | – | –
5 | Cn1cc(C2=C(c3coc4ccc(F)cc34)C(=O)NC2=O)c2cc(C#CC3CC3)ccc21 | – | 34 µM | > 50 µM | > 50 µM | –
6 | Cn1cc(C2=C(c3coc4ccccc34)C(=O)NC2=O)c2cc(I)ccc21 | 0.0345 µM | – | – | > 50 µM | –
7 | Cn1cc(C2=C(c3coc4cc(OCC5CC5)ccc34)C(=O)NC2=O)c2cc(F)c(Cl)cc21 | 1.29 µM | – | – | – | –
8 | COc1ccc2c(C3=C(c4cn(C)c5cc(Cl)c(F)cc45)C(=O)NC3=O)coc2c1 | 0.87 µM | – | – | – | –
9 | COc1cccc2c(C3=C(c4cn(C)c5ccc(Br)cc45)C(=O)NC3=O)coc12 | 0.0075 µM | – | – | – | IC50 [4]: 1.16 µM
10 | COc1cccc2c(C3=C(c4cn(C)c5cc(C(F)(F)F)ccc45)C(=O)NC3=O)coc12 | – | 8 µM | 6 µM | 6 µM | –
11 | Cn1cc(C2=C(c3coc4ccccc34)C(=O)NC2=O)c2cc(Br)ccc21 | – | 30 µM | – | 43 µM | –
12 | Cn1cc(C2=C(c3coc4ccccc34)C(=O)NC2=O)c2cc(F)c(Cl)cc21 | – | 3 µM | 2 µM | 2 µM | –
13 | COc1ccc(CNC(=O)Nc2ncc([N+](=O)[O-])s2)cc1 | – | 29 µM | 14 µM | 22 µM | –
14 | Cn1cc(C2=C(c3coc4cc(OCC5CCC5)ccc34)C(=O)NC2=O)c2cc(F)c(Cl)cc21 | 4.09 µM | – | – | – | –
15 | Cn1cc(C2=C(c3coc4cc(F)c(F)cc34)C(=O)NC2=O)c2ccc3ccccc3c21 | – | 17 µM | 7 µM | 6 µM | –
16 | COc1cc2c(C3=C(c4coc5ccccc45)C(=O)NC3=O)cn(C)c2cc1Cl | – | > 50 µM | > 50 µM | > 50 µM | –
17 | COCc1cccc2c(C3=C(c4coc5ccccc45)C(=O)NC3=O)cn(C)c12 | – | > 50 µM | > 50 µM | – | –
